In one series the test system is Hep 3B cells. Nature of the series: Inhibition of Hep 3B cell proliferation (CellTiter-Glo). The settings on record: Homo sapiens, Hep3B, 72 hours. The format is cell-based. Here is the method: 3. Experiment on the Inhibition of Hep 3B Cell Proliferation
In this experiment, the inhibitory effect of the compounds on Hep 3B cell proliferation was tested by a CellTiter-Glo method, and the half maximal inhibitory concentration (IC50) of the compounds on the activity of cell proliferation was determined.
1) A 96-well cell culture plate was seeded with 50˜100 μL of Hep 3B cell suspension at a density of 1-5×10^4 cells/ml. The culture plate was incubated in an incubator for 16-24 hours (37° C., 5% CO2).
(§1) 2) Different concentrations of the test compound in a gradient dilution were added to the cells in the culture plate. The culture plate was incubated in an incubator for 72 hours (37° C., 5% CO2).
3) 50-100 μL of CellTiter-Glo reagent were added to each well. Then, the culture plate was shaken or left to stand for 5˜30 minutes at room temperature.
(§2) 4) The chemiluminescence signal values of each plate were determined by a microplate reader.
(§3) 5) The inhibition rates were calculated according to the chemiluminescence signal values.
6) The IC50 of the compound was obtained by curve fitting according to the inhibition rates at different concentrations, and the cell activity of the specific example compounds is shown in Table 2.

The subject of another series is HuH-7 cells. Nature of the series: Inhibition of HuH-7 cell proliferation (CellTiter-Glo). The format is cell-based. The settings on record: Homo sapiens, 72 hours. Here is the method: 4. Experiment on the Inhibition of HuH-7 Cell Proliferation
In this experiment, the inhibitory effect of the compounds on HuH-7 cell proliferation was tested by a CellTiter-Glo method, and the half maximal inhibitory concentration (IC50) of the compounds on the activity of cell proliferation was determined.
1) A 96-well cell culture plate was seeded with 50˜100 μL of HuH-7 cell suspension at a density of 1-5×10^4 cells/ml. The culture plate was incubated in an incubator for 16˜24 hours (37° C., 5% CO2).
as §1
(§4) 3) 50˜100 μL of CellTiter-Glo reagent were added to each well. Then, the culture plate was shaken or left to stand for 5˜30 minutes at room temperature.
as §2, §3
6) The IC50 of the compound was obtained by curve fitting according to the inhibition rates at different concentrations, and the cell activity of the specific Example compounds is shown in Table 2.
(In ATP-based viability assays light output follows the ATP content of the culture.)

The test system of a further series is SK-HEP-1 cells. Nature of the series: Inhibition of SK-HEP-1 cell proliferation (CellTiter-Glo). It is filed as cell-based. Conditions: Homo sapiens, SK-HEP1, 72 hours. Here is the method:
5. Experiment on the Inhibition of SK-HEP-1 Cell Proliferation
In this experiment, the inhibitory effect of the compounds on SK-HEP-1 cell proliferation was tested by a CellTiter-Glo method, and the half maximal inhibitory concentration (IC50) of the compounds on the activity of cell proliferation was determined.
1) A 96-well cell culture plate was seeded with 50˜100 μL of SK-HEP-1 cell suspension at a density of 1-5×10^4 cells/ml. The culture plate was incubated in an incubator for 16˜24 hours (37° C., 5% CO2).
as §1, §4, §2, §3
The IC50 of the compound was obtained by curve fitting according to the inhibition rates at different concentrations, and the cell activity of the specific Example compounds is shown in Table 2.

A short description of series [1]: Pharmacokinetic (PK) analysis in rats. It is filed as in vivo, Sprague Dawley (SD) rats. Conditions: SD rats, single intragastric administration, 5 mg/kg, plasma; for AUC(0-t) / AUC(0-inf) / half-life / MRT / Cmax: Sprague-Dawley, rat, po; for AUC(0-t): read-out: Area Under Curve AUC0-t; for AUC(0-inf): read-out: Area Under Curve AUC0-∞; for half-life: read-out: Half-Time t1/2 (converted); for MRT: read-out: Mean Residence Time MRT; for Cmax: read-out: Plasma Concentration Cmax. Here is the method: 6. Pharmacokinetic (PK) Analysis in Rats
Mode of administration: a single intragastric administration.
Formulation: 0.5% CMC and 1% Tween 80, ultrasonic dissolution.
Sampling points: 0.5, 1, 2, 4, 6, 8 and 24 hours after administration.
1. 1.0 ml of intravenous blood was collected and placed in a K2EDTA test tube.
The blood was centrifuged at room temperature at the speed of 1000˜3000×g for 5˜20 minutes to isolate the plasma, which was then stored at −80° C. 2. 160 μL of acetonitrile were added to 40 μL of plasma sample for precipitation, and then the mixture was centrifuged at the speed of 500˜2000×g for 5˜20 minutes. 3. 100 μL of treated solution were taken, and the concentration of the test compound was analyzed by LC/MS/MS. The LC/MS/MS analytical instrument was AB Sciex API 4000.
Liquid Chromatography Analysis:
Condition of Liquid chromatography: Shimadzu LC-20AD pump
Chromatographic column: phenomenex Gemiu 5 um C18 50×4.6 mm
Mobile phase: Solution A is 0.1% aqueous formic acid solution, and solution B is acetonitrile
Elution time: 0-3.5 minutes, the eluent was as follows:
Mass spectrometry analysis:
Mass spectrometer setup conditions: positive ion electrospray ionization (ESI) mode.

A further series deals with FGFR1 kinase (Homo sapiens (Human), UniProt P11362). Nature of the series: Enzymologic experiment of FGFR1 (TR-FRET). The settings on record: TR-FRET kinase activity. The format is biochemical. Here is the method:
2. Enzymologic Experiment of FGFR1
In this experiment, the inhibitory effect of the compounds on FGFR1 kinase activity was tested by a fluorescence resonance energy transfer (TR-FRET) method, and the half maximal inhibitory concentration (IC50) of the compounds on the FGFR1 kinase activity was determined.
1) 1˜5 μL of FGFR1 enzymatic solution was added to a 384-well plate, and the final concentration of the enzyme was 0.1˜5 nM.
2) 1˜5 μL of diluted solution in gradient of the compound was added.
3) 1˜5 μL of a substrate mixture containing substrate polypeptide with a final concentration of 5˜50 nM and ATP with a final concentration of 10˜200 μM was added.
4) The mixture was incubated for 0.5-3 hours at room temperature.
5) 10 μL of EDTA and a test solution comprising labeled antibody were added, and the plate was incubated for 1 hour at room temperature.
6) The fluorescence signal values of each plate were determined by a microplate reader at 665 nm.
7) The inhibition rates were calculated according to the fluorescence signal values.
The IC50 of the compound was obtained by curve fitting according to the inhibition rates at different concentrations, and the enzymatic activity of the specific example compounds is shown in Table 1.
(Time-resolved FRET reads energy transfer from a long-lived donor to a nearby acceptor.)

In general, IC50 refers to the concentration that inhibits the measured activity by half. Low readings indicate inhibition by little substance, high ones a need for much substance. By MRT is commonly meant a mean duration of stay, worked out from the concentration-time curve.

FGFR1 kinase, sequence (P11362 22-822): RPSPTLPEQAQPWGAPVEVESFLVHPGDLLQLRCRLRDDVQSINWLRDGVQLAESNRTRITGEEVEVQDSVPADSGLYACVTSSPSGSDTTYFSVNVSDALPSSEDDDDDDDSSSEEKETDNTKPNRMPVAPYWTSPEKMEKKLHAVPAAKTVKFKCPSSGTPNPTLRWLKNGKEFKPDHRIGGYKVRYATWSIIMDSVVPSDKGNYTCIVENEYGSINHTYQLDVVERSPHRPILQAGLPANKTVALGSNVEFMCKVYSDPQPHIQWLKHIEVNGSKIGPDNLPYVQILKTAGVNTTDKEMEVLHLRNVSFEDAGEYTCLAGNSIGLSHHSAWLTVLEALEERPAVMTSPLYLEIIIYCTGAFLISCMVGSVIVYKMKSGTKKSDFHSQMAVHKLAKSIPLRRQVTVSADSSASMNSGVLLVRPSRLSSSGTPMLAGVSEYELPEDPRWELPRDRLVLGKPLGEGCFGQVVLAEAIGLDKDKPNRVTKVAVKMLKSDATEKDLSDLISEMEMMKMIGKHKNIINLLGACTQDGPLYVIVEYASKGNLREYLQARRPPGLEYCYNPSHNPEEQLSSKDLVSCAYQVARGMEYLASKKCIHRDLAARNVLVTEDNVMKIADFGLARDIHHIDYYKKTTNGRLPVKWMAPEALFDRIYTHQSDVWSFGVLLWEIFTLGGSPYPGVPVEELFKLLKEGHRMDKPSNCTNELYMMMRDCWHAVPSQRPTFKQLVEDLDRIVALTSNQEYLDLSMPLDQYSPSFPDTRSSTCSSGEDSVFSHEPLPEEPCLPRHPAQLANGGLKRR

As for `COCCNc1cc(NC(=O)N2CCCc3cc(CN(C)C(=O)[C@H]4CCCO4)c(C=O)nc32)ncc1C#N` [Example 1, (R)—N-(5-Cyano-4-((2-methoxyethyl)amino)pyridin-2-yl)-7-formyl-6-((N-methyltetrahydrofuran-2-carboxamido)methyl)-3,4-dihydro-1,8-naphthyridin-1(2H)-carb oxamide], it took 7.3 nM to reach half-maximal inhibition with Hep 3B cells (IC50). Moreover, the IC50 with HuH-7 cells stood at 11 nM. Also, the half-inhibitory concentration (IC50) with SK-HEP-1 cells was more than 10000 nM. Moreover, in series [1], the Peak Time tmax stood at 2 h, the AUC(0-t) stood at 6800 ng·h/mL, the AUC(0-inf) is 6930 ng·h/mL and the half-life was 1.1 h. Further, in series [1], the MRT was found to be 3.1 h and the Cmax was determined as 2070 ng/mL. In addition, the IC50 on FGFR1 kinase is more than 10000 nM.
Molecule `COCCNc1cc(NC(=O)N2CCCc3cc(CN(C)C(=O)[C@@H]4CCCO4)c(C=O)nc32)ncc1C#N` [Example 2, (S)—N-(5-Cyano-4-((2-methoxyethyl)amino)pyridin-2-yl)-7-formyl-6-((N-methyltetrahydrofuran-2-carboxamido)methyl)-3,4-dihydro-1,8-naphthyridin-1(2H)-carb oxamide] displayed an IC50 in the series with Hep 3B cells of 5.3 nM. In addition, 5.9 nM corresponded to half-maximal inhibition in the series on HuH-7 cells (IC50). Moreover, the IC50 in the series on SK-HEP-1 cells was more than 10000 nM. Also, in series [1], the Peak Time tmax was determined as 2 h, the AUC(0-t) stood at 5820 ng·h/mL, the AUC(0-inf) came to 5900 ng·h/mL and the half-life is 1.2 h. In addition, in series [1], the MRT is 2.5 h and the Cmax came to 2200 ng/mL. The IC50 at FGFR1 kinase was more than 10000 nM.
In the series with Hep 3B cells, `COCCNc1cc(NC(=O)N2CCCc3cc(CN(C)C(=O)C4COC4)c(C=O)nc32)ncc1C#N` [Example 3, N-(5-Cyano-4-((2-methoxyethyl)amino)pyridin-2-yl)-7-formyl-6-((N-methyloxetane-3-carboxamido)methyl)-3,4-dihydro-1,8-naphthyridin-1(2H)-carboxamide] displayed a half-maximal inhibitory concentration (IC50) of 5.4 nM. Besides, in the series on HuH-7 cells, half-maximal inhibition (IC50) was put at 38.8 nM. Besides, the IC50 in the series with SK-HEP-1 cells is more than 10000 nM. Also, in series [1], the Peak Time tmax is 2 h, the AUC(0-t) came to 6350 ng·h/mL, the AUC(0-inf) is 6660 ng·h/mL and the half-life was 1.6 h. Besides, in series [1], the MRT is 3.3 h and the Cmax was found to be 2230 ng/mL. On FGFR1 kinase, this molecule gave an IC50 of more than 10000 nM.
`COCC(=O)N(C)Cc1cc2c(nc1C=O)N(C(=O)Nc1cc(N3CC[C@H](OC)C3)c(C#N)cn1)CCC2` [Example 106, (S)—N-(5-Cyano-4-(3-methoxypyrrolidin-1-yl)pyridin-2-yl)-7-formyl-6-((2-methoxy-N-methylacetamido)methyl)-3,4-dihydro-1,8-naphthyridin-1(2H)-carboxamide]: the IC50 is 5.8 nM in the series with Hep 3B cells, 21.1 nM in the series with HuH-7 cells, more than 10000 nM with SK-HEP-1 cells and more than 10000 nM against FGFR1 kinase.
As to `COCCNc1cc(NC(=O)N2CCCc3cc(CN(C[C@H]4CCCO4)C(C)=O)c(C=O)nc32)ncc1C#N` [Example 109, (R)—N-(5-Cyano-4-((2-methoxyethyl)amino)pyridin-2-yl)-7-formyl-6-((N-((tetrahydrofuran-2-yl)methyl)acetamido)methyl)-3,4-dihydro-1,8-naphthyridin-1(2H)-carboxamide], the IC50 in the series on Hep 3B cells is 6 nM; in the series with HuH-7 cells it was 11.1 nM; in the series with SK-HEP-1 cells it was more than 10000 nM; against FGFR1 kinase, more than 10000 nM.
Consider `COCCNc1cc(NC(=O)N2CCCc3cc(CN(C[C@@H]4CCCO4)C(C)=O)c(C=O)nc32)ncc1C#N` [Example 111, (S)—N-(5-Cyano-4-((2-methoxyethyl)amino)pyridin-2-yl)-7-formyl-6-((N-((tetrahydrofuran-2-yl)methyl)acetamido)methyl)-3,4-dihydro-1,8-naphthyridin-1(2H)-carboxamide], for which the IC50 in the series on Hep 3B cells was 8.3 nM; with HuH-7 cells it was 21.5 nM; in the series on SK-HEP-1 cells it was more than 10000 nM; against FGFR1 kinase, more than 10000 nM.

Source of the values: patent US11608332B2, “FGFR4 inhibitor and preparation method and use thereof” (Jiangsu Hansoh Pharmaceutical Group Co., Ltd., priority 2016, dated 2023).
